Data on one compound can be found in paper doi:10.1101/2024.05.29.596450v1 (biorxiv, 2024).

This assay relates to Staphylococcus aureus MRSA (ATCC BAA-44). As to the kind of experiment: microbe, parasite or virus in culture. Details: species or system Staphylococcus aureus ATCC BAA-44. Particulars: ATCCBAA44|MRSA, 18 h, read-out: %viability.

One may read the viability as a per cent measure of how many cells are alive, often set against a control.

As to `CC1(C)S[C@@H]2[C@H](NC(=O)[C@H](N)c3ccc(O)cc3)C(=O)N2[C@H]1C(=O)O` [Amoxicillin], the viability at 50 µM turned out to be 85%.
